Results reported in article PMC9135335, “Structure and kinase activity of bacterial cell cycle regulator CcrZ” (PLoS Genetics, 2022).

Assays:
CcrZ (YtmP) [1] = biological target: T1, CcrZ (YtmP) (Bacillus subtilis, UniProt C0SPC1); assay: X-ray crystallography, SAD, […] Å; format: binding; details: selenomethionine derivative; pH 5.84, PEG 6000, 1 M LiCl, MgCl2 and D-ribose added but not seen; adenine in ATP pocket, phosphates turned to solvent (non-catalytic pose)
T1 construct: full length, 6xHis-SUMO tag cleaved by SUMO protease, expressed in E. coli; monomer ~30 kDa; selenomethionine derivative for the crystal
T1 sequence (C0SPC1 1-269): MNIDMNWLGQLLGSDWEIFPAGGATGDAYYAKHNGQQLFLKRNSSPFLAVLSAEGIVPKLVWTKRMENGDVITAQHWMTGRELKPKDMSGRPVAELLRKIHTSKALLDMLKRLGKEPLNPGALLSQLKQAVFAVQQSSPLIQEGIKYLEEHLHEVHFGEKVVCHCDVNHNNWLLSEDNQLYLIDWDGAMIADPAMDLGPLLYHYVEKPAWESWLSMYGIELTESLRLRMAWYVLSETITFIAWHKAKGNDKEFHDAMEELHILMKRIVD

CcrZ (YtmP) [2] = biological target: T1, CcrZ (YtmP); assay: ADP-Glo ATPase assay (proxy for kinase activity); format: biochemical; details: 0.1 mM ATP, 37 °C, 30 min, product not identified
LicA = biological target: T2, LicA (Streptococcus pneumoniae, UniProt Q8DPI4); assay: ADP-Glo ATPase assay (proxy for kinase activity); format: biochemical; details: 1.25 mM choline, 0.1 mM ATP, 37 °C, 30 min
T2 construct: gene pck; gene codon optimized for B. subtilis, pE-SUMO-kan vector, SUMO tag cleaved, expressed in E. coli BL21
T2 sequence (Q8DPI4 entry or part of it): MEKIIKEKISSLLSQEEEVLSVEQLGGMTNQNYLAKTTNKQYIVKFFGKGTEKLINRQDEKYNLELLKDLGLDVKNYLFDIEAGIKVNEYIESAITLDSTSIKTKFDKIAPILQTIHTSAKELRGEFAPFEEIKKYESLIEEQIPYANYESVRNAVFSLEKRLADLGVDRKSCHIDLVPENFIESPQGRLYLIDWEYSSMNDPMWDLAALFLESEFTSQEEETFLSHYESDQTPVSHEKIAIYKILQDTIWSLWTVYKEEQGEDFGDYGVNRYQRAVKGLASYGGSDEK

How did the “X-ray crystallography, SAD, 2.6 Å” value (CcrZ (YtmP) [1]) turn out when `Nc1ncnc2c1ncn2[C@@H]1O[C@H](COP(=O)(O)OP(=O)(O)NP(=O)(O)O)[C@@H](O)[C@H]1O` [AMP-PNP] was run?
The value was “we solved the crystal structure of B. subtilis CcrZ bound to AMP-PNP”.

Which “ADP-Glo ATPase assay (proxy for kinase activity)” value (from here on “ADP-Glo ATPase assay”) (CcrZ (YtmP) [2]; 5 mM 2-deoxy-ribose) does the source give for `OC[C@H]1OC(O)C[C@@H]1O` (stereo partly drawn) [2-deoxy-D-ribose] here?
Its value is “CcrZ ATPase activity was stimulated in the presence of D-ribose and 2-deoxy-D-ribose”.

With `C[N+](C)(C)CCO` [choline] as the compound, how does the “ADP-Glo ATPase assay” value (LicA) read?
The value was “CcrZ does not have activity on choline while LicA shows robust activity”.

For `OC1OC[C@@H](O)[C@@H](O)[C@H]1O` (stereo partly drawn) [D-ribose], which “ADP-Glo ATPase assay” value (CcrZ (YtmP) [2]; 5 mM D-ribose) is on record?
The value was “CcrZ ATPase activity was stimulated in the presence of D-ribose and 2-deoxy-D-ribose”.
